Data on six compounds can be found in paper PMC5624964, “ORP5 and ORP8 bind phosphatidylinositol-4, 5-biphosphate (PtdIns(4,5)P2) and regulate its level at the plasma membrane” (Nature Communications, 2017).

What all share (assay): isothermal titration calorimetry
Format in all cases: binding
For orientation: Isothermal titration calorimetry measures the heat released or taken up as one component is titrated into another.

One test has as its target T1, ORP8 ORD (Homo sapiens, UniProt Q9BZF1).
T1 construct: gene OSBPL8; ORD domain 400-778 of ORP8L, His6-ubiquitin tag removed by DUB without extra N-terminal residues, E. coli
T1 sequence (Q9BZF1 400-778): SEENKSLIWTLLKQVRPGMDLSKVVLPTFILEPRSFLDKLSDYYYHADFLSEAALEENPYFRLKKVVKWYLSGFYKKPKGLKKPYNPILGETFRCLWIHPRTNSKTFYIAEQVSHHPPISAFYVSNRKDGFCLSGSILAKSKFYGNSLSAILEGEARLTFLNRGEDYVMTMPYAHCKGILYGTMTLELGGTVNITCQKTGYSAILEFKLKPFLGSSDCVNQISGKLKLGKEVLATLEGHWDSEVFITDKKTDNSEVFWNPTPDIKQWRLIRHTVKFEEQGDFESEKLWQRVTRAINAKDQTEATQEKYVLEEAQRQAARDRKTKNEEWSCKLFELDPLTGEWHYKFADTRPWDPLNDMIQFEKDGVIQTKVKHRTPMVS
From the text: isothermal titration calorimetry on ORP8 ORD

A further test concerns the target T2, ORP5 ORD (Homo sapiens, UniProt Q9H0X9).
T2 construct: gene OSBPL5; ORD domain 364-746 of ORP5A, His6-ubiquitin tag removed by DUB without extra N-terminal residues, E. coli
T2 sequence (Q9H0X9 364-746): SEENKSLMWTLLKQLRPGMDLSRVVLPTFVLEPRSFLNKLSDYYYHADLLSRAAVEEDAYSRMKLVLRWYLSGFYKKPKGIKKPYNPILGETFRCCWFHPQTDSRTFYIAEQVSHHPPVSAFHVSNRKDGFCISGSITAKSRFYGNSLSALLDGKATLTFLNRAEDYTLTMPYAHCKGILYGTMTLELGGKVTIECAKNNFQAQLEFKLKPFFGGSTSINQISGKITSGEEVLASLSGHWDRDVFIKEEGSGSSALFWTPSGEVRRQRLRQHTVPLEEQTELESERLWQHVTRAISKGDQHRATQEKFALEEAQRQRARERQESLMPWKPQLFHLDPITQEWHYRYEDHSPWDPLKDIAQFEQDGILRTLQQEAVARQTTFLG
The source says:
isothermal titration calorimetry on ORP5 ORD

A further test has as its target T3, ORP8 PH (Homo sapiens, UniProt Q9BZF1).
T3 construct: gene OSBPL8; PH domain 149-265 of ORP8L, synthetic gene, N-terminal MGSSGSSG and C-terminal RSGPSSGLEEF linkers, GST tag cleaved by thrombin, E. coli
T3 sequence (Q9BZF1 149-265): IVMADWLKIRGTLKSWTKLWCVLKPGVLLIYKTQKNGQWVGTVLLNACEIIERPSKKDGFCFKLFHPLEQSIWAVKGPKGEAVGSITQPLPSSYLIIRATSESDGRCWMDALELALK
From the text: isothermal titration calorimetry on ORP8 PH

A further test has as its target T4, ORP5 PH (Homo sapiens, UniProt Q9H0X9).
T4 construct: gene OSBPL5; PH domain 127-243 of ORP5A, synthetic gene, N-terminal MGSSGSSG and C-terminal RSGPSSGLEEF linkers, GST tag cleaved by thrombin, E. coli
T4 sequence (Q9H0X9 127-243): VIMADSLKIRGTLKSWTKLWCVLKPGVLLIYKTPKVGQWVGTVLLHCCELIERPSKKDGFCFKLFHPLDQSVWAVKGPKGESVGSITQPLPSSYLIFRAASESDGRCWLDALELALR
From the text:
isothermal titration calorimetry on ORP5 PH

[1] abbreviates: water-soluble diC8 lipid, 25 °C, 50 mM Tris pH 8.0, 100 mM NaCl.

Where two headings read alike, the source gives them in different places.

On to `CCCCCCCC(=O)OC[C@H](COP(=O)(O)O[C@@H]1[C@H](O)[C@H](OP(=O)(O)O)[C@@H](O)[C@H](O)[C@H]1O)OC(=O)CCCCCCC` [PtdIns(3)P], for which the Kd amounted to 1.7 ± 0.8 µM on ORP8 ORD and 9 ± 2.7 µM at ORP5 ORD.

As for `CCCCCCCC(=O)OC[C@H](COP(=O)(O)O[C@H]1[C@H](O)[C@@H](O)[C@H](OP(=O)(O)O)[C@@H](OP(=O)(O)O)[C@H]1O)OC(=O)CCCCCCC` [PtdIns(3,4)P2], the dissociation constant Kd on ORP8 PH was determined as 2.9 ± 0.1 µM; at ORP5 PH (setting [1]), 16.3 ± 0.4 µM; on ORP8 ORD it was 2.5 ± 0.6 µM; at ORP5 ORD (setting [1]), 0.8 ± 0.8 µM.

Take `CCCCCCCC(=O)OC[C@H](COP(=O)(O)O[C@H]1[C@H](O)[C@@H](OP(=O)(O)O)[C@H](OP(=O)(O)O)[C@@H](OP(=O)(O)O)[C@H]1O)OC(=O)CCCCCCC` [PtdIns(3,4,5)P3]: the equilibrium dissociation constant (Kd) at ORP8 PH is 11.8 ± 3.2 µM; at ORP5 PH (setting [1]), 5.3 ± 2.4 µM; on ORP5 ORD (setting [1]) it was 1.1 ± 0.3 µM.

Take `CCCCCCCC(=O)OC[C@H](COP(=O)(O)O[C@H]1[C@H](O)[C@@H](O)[C@H](OP(=O)(O)O)[C@@H](O)[C@H]1O)OC(=O)CCCCCCC` [PtdIns(4)P]: the dissociation constant (Kd) on ORP8 ORD (setting [1]) was determined as 2.3 ± 0.3 µM; at ORP5 ORD (setting [1]) it was 6.7 ± 3.3 µM.

`CCCCCCCC(=O)OC[C@H](COP(=O)(O)O[C@@H]1[C@H](O)[C@H](O)[C@@H](OP(=O)(O)O)[C@H](OP(=O)(O)O)[C@H]1O)OC(=O)CCCCCCC` [PtdIns(4,5)P2]: the Kd at ORP8 PH stood at 5.5 ± 1.2 µM; on ORP5 PH, 7.3 ± 0.5 µM; at ORP8 ORD, 5.3 ± 0.4 µM; at ORP5 ORD, 6.7 ± 1.5 µM.

Compound `CCCCCCCC(=O)OC[C@H](COP(=O)(O)O[C@H]1[C@H](O)[C@@H](OP(=O)(O)O)[C@H](O)[C@@H](O)[C@H]1O)OC(=O)CCCCCCC` [PtdIns(5)P] displayed a Kd on ORP8 ORD of 5.9 ± 4.1 µM.

The term Kd denotes the concentration at which binding is half-saturated. Low values mean tighter binding, high ones weaker binding.
